Results: patent US9593149B2, “Amylin and calcitonin receptor agonist” (Novo Nordisk A/S, priority 2014, dated 2017)
≈ marks a conversion by molar mass, not a printed value. Numbered stars: 1 amine (or outer) side, 2 acyl side, 3 side chain; on linkers, the order of the positions; unused ones are H or OH. Peptide text beside a SMILES is read from it. * marks the point of attachment. C20 diacid = O=C(O)CCCCCCCCCCCCCCCCCCC(=O)*; C18 diacid = O=C(O)CCCCCCCCCCCCCCCCC(=O)*; γGlu = O=C(O)[C@H](CCC(=O)[*:2])N[*:1]; C12 diacid = O=C(O)CCCCCCCCCCC(=O)*

Assays:
rat calcitonin receptor = target: T1, rat calcitonin receptor (Rattus norvegicus, UniProt P32214); test: Assay (VIII) binding to the rat calcitonin receptor; conditions: membranes; read-out: rCT-R binding IC50
T1 construct: expressed in transfected cells; host or cells: BHK tk'ts 13 (transient, FuGENE 6)
T1 sequence (P32214 25-479 isoform P32214-2 limits assumed): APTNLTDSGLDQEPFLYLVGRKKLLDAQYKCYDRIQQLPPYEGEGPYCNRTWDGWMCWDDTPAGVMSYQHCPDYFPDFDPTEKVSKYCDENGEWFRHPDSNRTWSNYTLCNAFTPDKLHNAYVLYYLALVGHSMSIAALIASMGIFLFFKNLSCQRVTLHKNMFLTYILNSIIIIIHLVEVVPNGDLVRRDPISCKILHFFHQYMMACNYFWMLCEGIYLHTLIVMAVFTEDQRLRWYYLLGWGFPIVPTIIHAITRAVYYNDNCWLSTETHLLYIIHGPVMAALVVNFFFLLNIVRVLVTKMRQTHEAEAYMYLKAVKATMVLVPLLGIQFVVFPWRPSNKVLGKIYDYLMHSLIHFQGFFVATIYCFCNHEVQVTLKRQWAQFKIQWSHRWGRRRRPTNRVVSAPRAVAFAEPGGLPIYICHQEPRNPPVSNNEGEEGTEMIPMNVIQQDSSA
In short: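 Affinity given as IC50 from a one-site competition fit of bound radioactivity, counted by scintillation after cold HBSS washes and NaOH/SDS lysis. Membranes came from BHK tk'ts 13 cells transiently expressing the rat receptor; other conditions followed the human calcitonin receptor protocol.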

[1] = Assay (IX) pK, T½ in mini-pig; assay type: in vivo, Göttingen mini-pigs; conditions: i.v.
Procedure: Assay (IX)—pK—Determination of T½ in Mini-Pig
Pharmacokinetic (PK) studies in Göttingen mini-pigs were conducted in order to determine the T½ of the mimylin compound according to the Examples as indicated after i.v. administration.
T½ values of the amylin analogues of the invention is determined by pharmacokinetic studies in female Göttingen mini-pigs from Ellegaard Göttingen Minipigs ApS and the principles of laboratory animal care are followed.
An acclimatisation period of approximately 6-10 days was allowed before the animals entered the study. At start of the acclimatisation period the mini-pigs were about 5 to 12 months old and in the weight range of 15-35 kg. The mini-pigs had two central venous catheters inserted which were used for blood sampling.
The studies were conducted in an animal room which was illuminated to give a cycle of approximately 12 hours light and 12 hours darkness. The animals were housed individually. The animals had free access to domestic quality drinking water during the study, and no food restrictions applied for PK studies. The animals were weighed on arrival and on the days of dosing.
In the present studies the test substances were administered intravenously in approximately 5 nmol/kg dose. The animals received a single intravenous injection in one central venous catheter and blood sampling was performed from the other catheter, where possible. Each test substance was given to typically three but in some cases two or four animals.
A full plasma concentration-time profile, employing 12-16 sampling points, was obtained from each animal. In example blood samples were collected according to the following schedule:
After Intravenous Administration:
Pre-dose (0), 0.5, 1, 2, 4, 6, 8, 12, 24, 48, 72, 96, 120, 168 and 240 hours after injection. In some cases also additional blood samples up to 288 hours post injection were taken.
At each sampling time, 0.5 to 2 ml of blood was drawn from each animal. The blood samples were taken via the central venous catheter.
The 0.8 mL blood samples were collected into EDTA test tubes (8 mM EDTA). Blood samples were kept on ice for max 20 min. before centrifugation. Plasma was separated using centrifugation (i.e. at 4° C., 10 min., 2000G) and was immediately transferred to Micronic tubes on dry ice. Approximately 200 μl plasma was transferred to each Micronic tube. The plasma was stored at −20° C. until assayed. The plasma samples were assayed for the content of compound using LCMS.
The plasma concentration-time profiles were analysed by a non-compartmental pharmacokinetic analysis (NCA) using Phoenix WinNonlin 6.3 (Pharsight Inc., Mountain View, Calif., USA). NCA was performed using the individual plasma concentration-time profiles from each animal. T½ is the terminal half-life=In2/λz and was determined from λz, the first order rate constant associated with the terminal (log-linear) portion of the curve, estimated by linear regression of time vs. log concentration.
MS-Method for Amylin and Mimylin Quantification
40 μl plasma is diluted with 120 μl 66.67% EtOH+1% HCOOH and mixed. Centrifuged for 20 min. at 13000 rpm, 4° C. The supernatant is analyzed by an LC-MS method on a Sciex API 3000 and quantitated with a standard made up in plasma

[2] = Assay (IV) determination of solubility; assay type: physicochemical
Procedure: Assay (IV)—Determination of Solubility
The mimylin peptide was dissolved in water at ˜500 nmol/ml and mixed 1:1 with a series of buffers (100 mM glycylglycine pH 3.0, 100 mM glycylglycine pH 4.0, 100 mM glycylglycine pH 5.0, 100 mM bistrispropane pH 6.0, 100 mM bistrispropane pH 6.5, 100 mM bistrispropane pH 7.0, 100 mM bistrispropane pH 7.5, 100 mM bistrispropane pH 8.0).

SMILES | IC50 (rat calcitonin receptor) [nM] | PK mini pig iv T½ [1] [h] | Solubility ([2]; pH 3.0) | Solubility ([2]; pH 4.0) | solubility at 18 h ([2]; pH 5.0) [µM] | Solubility ([2]; pH 6.0) | Solubility ([2]; pH 6.5) | Solubility ([2]; pH 7.0) | Solubility ([2]; pH 7.5) | Solubility ([2]; pH 8.0) | Solubility ([2]; pH 5.0) | solubility at 18 h ([2]; bistrispropane buffer, pH 6.5) [µM]
CC(C)C[C@H](NC(=O)CNC(=O)[C@H](CO)NC(=O)[C@H](C)NC(=O)CC[C@H](NC(=O)CCCCCCCCCCCCCCCCC(=O)O)C(=O)O)C(=O)N[C@@H](CO)C(=O)N[C@H](C(=O)N[C@@H](C)C(=O)N[C@@H](C)C(=O)N[C@@H](CC(C)C)C(=O)NCC(=O)N[C@@H](CCCNC(=N)N)C(=O)N[C@@H](CC(C)C)C(=O)N[C@@H](CO)C(=O)N[C@@H](CCC(N)=O)C(=O)N[C@@H](CCC(=O)O)C(=O)N[C@@H](CC(C)C)C(=O)N[C@@H](Cc1cnc[nH]1)C(=O)N[C@@H](CCC(=O)O)C(=O)N[C@@H](CC(C)C)C(=O)N[C@@H](CCC(N)=O)C(=O)N[C@H](C(=O)N[C@@H](Cc1ccc(O)cc1)C(=O)N1CCC[C@H]1C(=O)N[C@@H](CCCNC(=N)N)C(=O)N[C@H](C(=O)N[C@@H](CCC(=O)O)C(=O)N[C@H](C(=O)NCC(=O)N[C@@H](CO)C(=O)NCC(=O)N[C@H](C(=O)N[C@@H](Cc1ccc(O)cc1)C(N)=O)[C@@H](C)O)[C@@H](C)O)[C@@H](C)O)[C@@H](C)O)[C@@H](C)O [compound 110, [N-terminal(C18 diacid-gGlu), des1, 4G, 15Q, 21Q, 23Y, 30S, 31G, 32T, 33Y]mimylin] ({C18 diacid-γGlu}-ASGLSTAALGRLSQELHELQTYPRTETGSGTY-NH2) | 0.013 | 32 | ≧200 μM | ≧200 μM | 149 (≈ 569 µg/mL) | ≧200 μM | ≧200 μM | ≧200 μM | ≧200 μM | ≧200 μM |  | 
CC(C)C[C@H](NC(=O)[C@H](C)NC(=O)[C@H](C)NC(=O)[C@@H](NC(=O)[C@H](CO)NC(=O)[C@H](CC(C)C)NC(=O)[C@H](CCC(=O)O)NC(=O)[C@H](CO)NC(=O)[C@H](C)NC(=O)CC[C@H](NC(=O)CCCCCCCCCCCCCCCCCCC(=O)O)C(=O)O)[C@@H](C)O)C(=O)NCC(=O)N[C@@H](CCCNC(=N)N)C(=O)N[C@@H](CC(C)C)C(=O)N[C@@H](CO)C(=O)N[C@@H](C)C(=O)N[C@@H](CCC(=O)O)C(=O)N[C@@H](CC(C)C)C(=O)N[C@@H](Cc1cnc[nH]1)C(=O)N[C@@H](CCC(=O)O)C(=O)N[C@@H](CC(C)C)C(=O)N[C@@H](C)C(=O)N[C@H](C(=O)N[C@@H](Cc1ccc(O)cc1)C(=O)N1CCC[C@H]1C(=O)N[C@@H](CCCNC(=N)N)C(=O)N[C@H](C(=O)N[C@@H](CCC(=O)O)C(=O)N[C@H](C(=O)NCC(=O)N[C@@H](CO)C(=O)NCC(=O)N[C@@H](CO)C(=O)N1CCC[C@H]1C(N)=O)[C@@H](C)O)[C@@H](C)O)[C@@H](C)O [compound 56, [N-terminal(C20 diacid-gGlu), des1, 23Y, 30S, 31G]mimylin] ({C20 diacid-γGlu}-ASELSTAALGRLSAELHELATYPRTETGSGSP-NH2) | 0.202 | 88 | ≧200 μM | ≧200 μM |  | ≧200 μM | ≧200 μM | ≧200 μM | ≧200 μM | ≧200 μM | ≧200 μM | 
CC(C)C[C@H](NC(=O)[C@H](C)NC(=O)[C@H](C)NC(=O)[C@@H](NC(=O)[C@H](CO)NC(=O)[C@H](CC(C)C)NC(=O)[C@H](CCC(=O)O)NC(=O)[C@H](CO)NC(=O)[C@H](C)NC(=O)[C@H](CCC(=O)O)NC(=O)CCCCCCCCCCCCCCCCC(=O)O)[C@@H](C)O)C(=O)NCC(=O)N[C@@H](CCCNC(=N)N)C(=O)N[C@@H](CC(C)C)C(=O)N[C@@H](CO)C(=O)N[C@@H](C)C(=O)N[C@@H](CCC(=O)O)C(=O)N[C@@H](CC(C)C)C(=O)N[C@@H](C)C(=O)N[C@@H](CCC(=O)O)C(=O)N[C@@H](CC(C)C)C(=O)N[C@@H](C)C(=O)N[C@H](C(=O)N[C@@H](CC(C)C)C(=O)N1CCC[C@H]1C(=O)N[C@@H](CCCNC(=N)N)C(=O)N[C@H](C(=O)N[C@@H](CCC(=O)O)C(=O)N[C@H](C(=O)NCC(=O)N1CCC[C@H]1C(=O)N[C@@H](CCC(=O)O)C(=O)N[C@@H](CO)C(=O)N1CCC[C@H]1C(N)=O)[C@@H](C)O)[C@@H](C)O)[C@@H](C)O [compound 13, [N-terminal(C18 diacid), 18A]mimylin] ({C18 diacid}-EASELSTAALGRLSAELAELATLPRTETGPESP-NH2) |  | 86 | ≧200 μM | ≧200 μM |  | ≧200 μM | ≧200 μM | ≧200 μM | ≧200 μM | ≧200 μM | ≧200 μM | 
CC(C)C[C@H](NC(=O)[C@H](C)NC(=O)[C@H](C)NC(=O)[C@@H](NC(=O)[C@H](CO)NC(=O)[C@H](CC(C)C)NC(=O)[C@H](CCC(=O)O)NC(=O)[C@H](CO)NC(=O)[C@H](C)NC(=O)[C@H](CCC(=O)O)NC(=O)CCCCCCCCCCC(=O)O)[C@@H](C)O)C(=O)NCC(=O)N[C@@H](CCCNC(=N)N)C(=O)N[C@@H](CC(C)C)C(=O)N[C@@H](CO)C(=O)N[C@@H](C)C(=O)N[C@@H](CCC(=O)O)C(=O)N[C@@H](CC(C)C)C(=O)N[C@@H](Cc1cnc[nH]1)C(=O)N[C@@H](CCC(=O)O)C(=O)N[C@@H](CC(C)C)C(=O)N[C@@H](C)C(=O)N[C@H](C(=O)N[C@@H](CC(C)C)C(=O)N1CCC[C@H]1C(=O)N[C@@H](CCCNC(=N)N)C(=O)N[C@H](C(=O)N[C@@H](CCC(=O)O)C(=O)N[C@H](C(=O)NCC(=O)N1CCC[C@H]1C(=O)N[C@@H](CCC(=O)O)C(=O)N[C@@H](CO)C(=O)N1CCC[C@H]1C(N)=O)[C@@H](C)O)[C@@H](C)O)[C@@H](C)O [compound 6, [N-terminal(C12 diacid)]mimylin] ({C12 diacid}-EASELSTAALGRLSAELHELATLPRTETGPESP-NH2) |  | 1 | ≧200 μM | ≧200 μM |  | ≧200 μM |  | ≧200 μM | ≧200 μM | ≧200 μM | ≧200 μM | ≥ 200
